Experimental data: ChEMBL document CHEMBL1201862, “PubChem BioAssay data set” (2004)
Calls of active or inactive are those of the source. For most assays here, no stated cut-off is given here; in the data, actives have a measured IC50 and inactives only a lower limit.

What was measured:
[1] = molecular target: T1, Sentrin-specific protease 7 (Homo sapiens, UniProt Q9BQF6); assay: SENP7 protease inhibitors, SAR follow-up, biochemical, luminescence (AID 504497); format: functional
T1 sequence (Q9BQF6 whole entry): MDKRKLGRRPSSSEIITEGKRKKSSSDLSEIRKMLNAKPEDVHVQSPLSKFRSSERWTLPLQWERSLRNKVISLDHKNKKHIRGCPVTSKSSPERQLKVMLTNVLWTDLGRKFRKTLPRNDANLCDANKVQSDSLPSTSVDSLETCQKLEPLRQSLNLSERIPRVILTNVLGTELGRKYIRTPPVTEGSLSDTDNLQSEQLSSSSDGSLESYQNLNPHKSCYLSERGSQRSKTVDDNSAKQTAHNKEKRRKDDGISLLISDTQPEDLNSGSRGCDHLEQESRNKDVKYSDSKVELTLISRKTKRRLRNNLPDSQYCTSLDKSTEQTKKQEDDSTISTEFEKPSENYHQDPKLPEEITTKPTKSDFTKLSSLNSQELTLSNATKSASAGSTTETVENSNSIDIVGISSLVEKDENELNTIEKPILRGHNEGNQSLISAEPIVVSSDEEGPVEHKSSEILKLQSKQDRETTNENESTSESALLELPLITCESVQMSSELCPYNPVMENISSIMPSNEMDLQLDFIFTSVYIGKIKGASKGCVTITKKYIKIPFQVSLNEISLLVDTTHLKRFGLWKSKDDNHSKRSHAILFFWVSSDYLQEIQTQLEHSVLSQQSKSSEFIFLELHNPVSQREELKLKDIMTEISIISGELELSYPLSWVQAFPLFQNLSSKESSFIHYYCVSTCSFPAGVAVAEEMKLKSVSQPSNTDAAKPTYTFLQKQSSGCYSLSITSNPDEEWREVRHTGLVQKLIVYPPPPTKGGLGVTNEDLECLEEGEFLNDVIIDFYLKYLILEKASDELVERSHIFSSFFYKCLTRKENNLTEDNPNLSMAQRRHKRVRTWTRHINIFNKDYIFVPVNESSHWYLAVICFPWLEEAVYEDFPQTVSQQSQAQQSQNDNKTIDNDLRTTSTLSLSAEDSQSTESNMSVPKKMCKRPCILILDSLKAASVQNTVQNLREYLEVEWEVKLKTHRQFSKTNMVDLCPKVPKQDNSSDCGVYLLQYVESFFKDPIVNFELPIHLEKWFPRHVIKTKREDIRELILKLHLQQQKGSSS

[2] = molecular target: T2, Sentrin-specific protease 6 (Homo sapiens, UniProt Q9GZR1); assay: SENP6 protease inhibitors, SAR follow-up, biochemical, luminescence, set 2 (AID 588598); format: functional
T2 sequence (Q9GZR1 whole entry): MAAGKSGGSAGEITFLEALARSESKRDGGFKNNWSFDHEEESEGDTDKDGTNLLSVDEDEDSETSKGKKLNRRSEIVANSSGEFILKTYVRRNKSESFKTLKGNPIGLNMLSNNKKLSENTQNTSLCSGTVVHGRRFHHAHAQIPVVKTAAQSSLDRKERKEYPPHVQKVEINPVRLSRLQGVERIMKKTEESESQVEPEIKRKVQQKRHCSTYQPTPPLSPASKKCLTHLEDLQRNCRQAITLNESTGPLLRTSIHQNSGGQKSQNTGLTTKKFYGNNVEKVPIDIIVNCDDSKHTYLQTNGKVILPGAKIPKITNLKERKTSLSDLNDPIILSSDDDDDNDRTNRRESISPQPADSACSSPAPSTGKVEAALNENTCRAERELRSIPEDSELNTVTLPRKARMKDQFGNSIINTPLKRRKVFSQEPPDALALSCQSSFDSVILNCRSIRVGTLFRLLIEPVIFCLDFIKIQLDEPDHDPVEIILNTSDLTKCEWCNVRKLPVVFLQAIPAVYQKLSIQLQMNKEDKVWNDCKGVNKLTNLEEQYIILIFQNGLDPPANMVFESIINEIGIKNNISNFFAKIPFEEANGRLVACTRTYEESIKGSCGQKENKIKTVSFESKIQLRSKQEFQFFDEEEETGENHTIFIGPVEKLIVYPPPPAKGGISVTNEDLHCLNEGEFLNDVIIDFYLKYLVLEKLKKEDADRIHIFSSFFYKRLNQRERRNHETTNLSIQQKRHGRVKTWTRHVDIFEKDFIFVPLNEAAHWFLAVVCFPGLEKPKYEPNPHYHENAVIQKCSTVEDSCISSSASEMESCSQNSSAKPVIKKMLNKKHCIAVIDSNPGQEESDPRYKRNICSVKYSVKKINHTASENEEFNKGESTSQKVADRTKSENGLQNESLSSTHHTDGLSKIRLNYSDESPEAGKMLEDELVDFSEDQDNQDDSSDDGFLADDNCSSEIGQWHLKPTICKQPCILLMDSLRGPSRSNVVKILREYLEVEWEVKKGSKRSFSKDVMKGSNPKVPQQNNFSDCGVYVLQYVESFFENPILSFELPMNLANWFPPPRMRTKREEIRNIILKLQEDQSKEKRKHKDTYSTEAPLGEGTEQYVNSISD

[3] = molecular target: T2, Sentrin-specific protease 6; assay: SAR Analysis of small molecule inhibitors of Sentrin-specific protease 6 (SENP6) using a Luminescent assay. [Related pubchem assays (depositor defined):AID2582, AID2599]; format: functional
[4] = molecular target: T3, Sentrin-specific protease 8 (Homo sapiens, UniProt Q96LD8); assay: SENP8 protease inhibitors, SAR follow-up, biochemical, luminescence (AID 504501); format: functional
T3 sequence (Q96LD8 whole entry): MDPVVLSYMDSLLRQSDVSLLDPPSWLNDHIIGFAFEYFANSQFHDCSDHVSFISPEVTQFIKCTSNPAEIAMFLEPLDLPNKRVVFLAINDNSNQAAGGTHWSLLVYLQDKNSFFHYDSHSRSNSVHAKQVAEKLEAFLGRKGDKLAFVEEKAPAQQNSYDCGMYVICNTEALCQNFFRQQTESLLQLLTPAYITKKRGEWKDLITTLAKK

[5] = molecular target: T4, Caspase-3 (Homo sapiens, UniProt P42574); assay: caspase-3 inhibitors as off-family protease, SAR follow-up, selectivity assay for SENP protease inhibitor project, biochemical, luminescence, set 2 (AID 588599); format: functional
T4 sequence (P42574 whole entry): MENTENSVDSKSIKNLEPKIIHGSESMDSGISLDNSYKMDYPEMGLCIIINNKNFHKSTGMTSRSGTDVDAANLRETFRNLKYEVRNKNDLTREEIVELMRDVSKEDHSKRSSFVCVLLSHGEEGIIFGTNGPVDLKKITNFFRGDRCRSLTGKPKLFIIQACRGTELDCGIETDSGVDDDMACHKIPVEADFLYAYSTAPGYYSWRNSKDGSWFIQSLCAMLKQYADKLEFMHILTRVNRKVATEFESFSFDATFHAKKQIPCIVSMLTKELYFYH

[6] = molecular target: T4, Caspase-3; assay: SAR Analysis of small molecule inhibitors of Sentrin-specific proteases (SENPs) using a Caspase-3 Selectivity assay. [Related pubchem assays (depositor defined):AID2540, AID2599, AID434973, AID489001]; format: functional
[7] = molecular target: T3, Sentrin-specific protease 8; assay: SENP8 protease inhibitors, SAR follow-up, biochemical, luminescence, set 2 (AID 588601); format: functional
[8] = molecular target: DNA topoisomerase (Yersinia pestis, UniProt A0A2S9PM60); assay: Y. pestis Topo-I inhibitors, cleavage product readout, dose response, biochemical, cherry-pick (AID 588525)
[9] = test system: INS1; assay: protection from cytokine-driven beta-cell apoptosis, dose response, JC-1 fluorescence, INS-1E, dry powder, set 2 (AID 488867); format: functional, cell-based; conditions: Rattus norvegicus
[10] = test system: INS1; assay: protection from cytokine-induced mitochondrial depolarization, dose response, cell-based, INS-1E, JC-1 fluorescence ratio, dry powder (AID 488931); format: functional; conditions: Rattus norvegicus

DNA topoisomerase, sequence (A0A2S9PM60 whole entry): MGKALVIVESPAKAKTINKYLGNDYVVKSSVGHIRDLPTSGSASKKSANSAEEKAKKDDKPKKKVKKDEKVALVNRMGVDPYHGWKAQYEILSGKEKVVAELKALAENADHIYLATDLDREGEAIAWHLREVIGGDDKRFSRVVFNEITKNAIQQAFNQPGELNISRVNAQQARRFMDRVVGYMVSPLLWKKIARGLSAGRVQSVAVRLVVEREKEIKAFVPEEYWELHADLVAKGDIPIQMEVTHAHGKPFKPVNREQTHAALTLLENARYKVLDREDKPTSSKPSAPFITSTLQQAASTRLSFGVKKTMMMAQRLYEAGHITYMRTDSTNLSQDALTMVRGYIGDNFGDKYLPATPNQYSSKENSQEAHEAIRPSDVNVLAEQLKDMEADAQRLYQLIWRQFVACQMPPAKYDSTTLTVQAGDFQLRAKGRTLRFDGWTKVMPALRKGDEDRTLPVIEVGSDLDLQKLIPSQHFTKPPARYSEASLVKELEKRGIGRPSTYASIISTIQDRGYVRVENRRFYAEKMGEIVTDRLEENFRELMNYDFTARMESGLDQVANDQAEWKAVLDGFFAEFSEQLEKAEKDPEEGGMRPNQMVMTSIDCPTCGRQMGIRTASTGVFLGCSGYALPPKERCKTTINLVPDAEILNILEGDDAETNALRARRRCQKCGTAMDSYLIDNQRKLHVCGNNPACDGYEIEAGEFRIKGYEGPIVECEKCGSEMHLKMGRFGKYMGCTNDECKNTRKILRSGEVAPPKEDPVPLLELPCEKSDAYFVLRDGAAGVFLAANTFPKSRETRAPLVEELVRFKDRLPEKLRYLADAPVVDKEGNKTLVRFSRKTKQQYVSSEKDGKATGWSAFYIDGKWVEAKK

COc1ccccc1OCc1nc(-c2ccccc2Cl)no1
active: IC50 [1] 2.1 µM | IC50 [2] 2.08 µM | IC50 [3] 4.7 µM | IC50 [4] 4.9 µM | IC50 [5] 3.23 µM | IC50 [6] 2.9 µM | IC50 [7] 2 µM

O=C(Nc1ccccc1Cl)OCC#CCOC(=O)Nc1ccccc1Cl
active: AC50 [8] 12.6 µM

COc1ccc(S(=O)(=O)N(C)C[C@@H]2Oc3c(NC(=O)Nc4cccc5ccccc45)cccc3C(=O)N([C@@H](C)CO)C[C@H]2C)cc1OC
active: AC50 [9] 116 µM | AC50 [10] 85 µM
